The source of these data is patent US10968186B2, “Ascochlorin derivative and use thereof as AMPK activator” (priority 2016, dated 2021).

As a reminder, the melting point is the temperature, or range, at which the solid turns liquid. Broadly, the IC50 is the concentration that inhibits the measured activity by half. What is called solubility is the dissolved amount per volume that the medium holds.

≈ marks a conversion by molar mass, not a printed value. Like-named read-outs stand apart in the source and are kept apart here.

The subject of series [1] is BxPC-3. The series can be described thus: Anti-proliferative activity, CellTiterGlo assay, BxPC-3. Type of series: cell-based. Particulars: Homo sapiens; BxPC-3, 96 hrs incubation; read-out: Antiproliferative activities IC50, BxPC-3. As to the method: (§1) The anti-proliferative activities of the compounds against 6 human cancer cell lines were determined by CellTiterGlo assay kit. All cells were obtained from ATCC and cultured as recommended by the vendor. Cells were assayed in exponential growth phase. Sample solution was prepared by 3-fold serial dilution from 30 mM stock for 10 doses in DMSO. Antiproliferative activities were measured by CellTiterGlo assay kit according to the protocol after cells were incubated for 96 hrs in a 37° C., 5% CO2 incubator.
(§2) On the 4th day of incubation, i) 15 μl reagent (CelltiterGlo assay kit) was added per well and plate was shaken (avoiding light) for 2 mins on a plate shaker, ii) the plate was kept (avoiding light) in room temperature for 30 min, and iii) the luminescence value was recorded by Multiplate reader.
(Cellular ATP, detected with luciferase, serves as a proxy for viable cell number.)

Series [2] has as its system Hep3B human liver cancer xenograft. The series can be described thus: Antitumor activity in Hep3B human liver cancer xenograft model. The following applies: po 200 mg/kg once daily 5 days then 100 mg/kg 10 days; alone or in combination of sorafenib (80 mg/kg). In kind it is in vivo, BALB/c nude mice. As to the method: Antitumor Activity of Compound 5 (po, qd×14) in Hep3B Human Liver Cancer Xenograft Model in BALB/c Nude Mice: Single Agent and Combination With Sorafenib
Each mouse was inoculated subcutaneously on the right flank with Hep3B tumor cells (5×106) in 0.1 ml of MEM-Matrigel mixture (1:1 ratio) for tumor development. The treatment started when the mean tumor size reached approximately 137 mm^3. Mice were then randomized into groups.
Compound 5 was dissolved in the vehicle (95% v/v PEG400+5% Tween 80) and orally administered to the tumor-bearing mice with 200 mg/kg, once daily for the first 5 days, followed by treatment with 100 mg/kg for 10 days.
Background: Xenograft models place foreign cells or tissue in a host animal.

Series [3] relates to A549. In words: Anti-proliferative activity, CellTiterGlo assay, A549. Type of series: cell-based. The following applies: Homo sapiens; A549, 96 hrs incubation; read-out: Antiproliferative activities IC50, A549. On the procedure: as §1, §2
For series [4], the system named is U87-MG. The series can be described thus: Anti-proliferative activity, CellTiterGlo assay, U87-MG. Type of series: cell-based. Particulars: Homo sapiens, U-87 MG, 96 hrs incubation, read-out: Antiproliferative activities IC50, U87-MG. As to the method: as §1, §2
Series [5] has as its system HT29. The series can be described thus: Anti-proliferative activity, CellTiterGlo assay, HT29. In kind it is cell-based. Particulars: Homo sapiens, HT-29; HT29, 96 hrs incubation; read-out: Antiproliferative activities IC50, HT29. As to the method:
as §1, §2

Series [6] is described as follows: Stability against human liver microsomes. Type of series: in vitro ADME. Particulars: 2 μM compound. As to the method:
(§3) Determination of Stability Against Mouse and Human Mirosomes
(§4) Pooled human liver microsomes (Cat. 452161; Lot. 23418) were purchased from Corning and pooled male mouse liver microsomes (Cat. M1000; Lot. 1210302) were purchased from Xenotech. Microsomes were stored at −80° C. prior to use. 40 μL of ultra-pure H2O was used instead of NADPH solution in the negative control. The negative control was used to exclude the misleading factor that was resulted from instability of chemical itself. Samples with NADPH were prepared in duplicate. Negative controls were prepared in singlet.
(§5) The reaction was started with the addition of 4 μL of 200 μM compound solution to each master solution to get the final concentration of 2 μM. Verapamil was used as positive control in the assay. Aliquots of 50 μL were taken from the reaction solution at 0, 15, 30, 45 and 60 min. The reaction was stopped by addition of 4 volumes of cold acetonitrile with IS (200 nM imipramine, 200 nM labetalol and 2 μM ketoprofen). Samples were centrifuged at 3,220 g for 40 minutes. Aliquot of […] of the supernatant was mixed with 90 μL of ultra-pure H2O and then was used for LC-MS/MS analysis. Results are shown in Table 3 by indicating remaining % of the test compound after 60 minutes incubation with liver microsomes from human and mouse in the presence of NADPH.

Series [7] concerns MDA-MB-231. The series can be described thus: Anti-proliferative activity, CellTiterGlo assay, MDA-MB-231. In kind it is cell-based. Particulars: Homo sapiens; MDA-MB-231, 96 hrs incubation; read-out: Antiproliferative activities IC50, MDA-MB-231. On the procedure:
as §1, §2

The subject of series [8] is LNCaP. In words: Anti-proliferative activity, CellTiterGlo assay, LNCaP. Particulars: Homo sapiens, 96 hrs incubation, read-out: Antiproliferative activities IC50, LNCaP. Type of series: cell-based. On the procedure: as §1, §2
The nature of series [9]: Stability against mouse liver microsomes. In kind it is in vitro ADME. The following applies: mouse LM, 2 μM compound, 60 min, NADPH. As to the method:
as §3, §4, §5
In general terms: Microsomes from liver hold many membrane-bound enzymes, among them those of drug oxidation.

The nature of series [10]: Solubility in pH4.0 and pH7.4 phosphate buffer solution. In kind it is physicochemical. Particulars: 2 hr incubation, 25° C. As to the method:
1) Preparation of Stock Solutions
Diclofenac was used as positive control in the assay.
2) Procedures for Solubility Determination
This study was performed in duplicate. […] The filtered samples were diluted with methanol.
3) Samples Analyzed by LC-MS/MS

The test system of series [11] is HFD-STZ C57BL/6J mice model. In words: In vivo efficacy in HFD-STZ C57BL/6J mice model. On the procedure: In Vivo Efficacy in HFD-STZ C57BL/6J Mice Model
Diet induced obesity model establishment:
C57BL/6J mice were fed with high fat diet (Research Diets, D12492) for 64 days, and streptozotocin (10 mg/kg) was given orally on day 22 and day 29. Compound treatment was done from day 36 to day 63.
Based on the animal's body weight and oral glucose tolerance test (OGTT) on week 5, mice were randomly assigned to respective groups using a computer-generated randomization procedure.
Blood glucose level was measured with the blood from tail vein every 2nd week by using Accu-Chek Aviva System.
Blood Chemistry Analysis:
Blood samples were obtained from collection on Day 49 and 65, the samples were immediately processed by centrifugation at 4° C., 4,000 g for 15 minutes, and then they were transferred into a new test tube. Lipid profile and full panel blood bio-chemistry parameters were measured by using TOSHIBA TBA-40FR automated biochemical analyzer.

A short description of series [12]: Stability in acidic pH phosphate buffer solution (hydrolysis to MAC). Type of series: physicochemical. The following applies: room temperature. The text has this:
Therefore, the Schiff base derivatives of MAC have the same problem in the metabolic stability as the parent compound, MAC.

The mark [13] stands for this setting: OGTT assay, versus group treated with vehicle.
Setting [14] is: once a day oral treatment for 28 days at 0.25 to 16 mg/kg.

The molecule `COc1c(Cl)c(C)c(C=O)c(O)c1C/C=C(C)/C=C/[C@@]1(C)[C@H](C)CC[C@](C)(O)[C@@H]1C` [Compound 1, 3-chloro-6-hydroxy-5-[(2E,4E)-5-[(1R,2R,3S,6R)-3-hydroxy-1,2,3,6-tetramethylcyclohexyl]-3-methylpenta-2,4-dien-1-yl]-4-methoxy-2-methylbenzaldehyde] had a melting point of 42 to 43 °C.
`COc1c(Cl)c(C)c(C=O)c(O)c1C/C=C(C)/C=C/[C@@]1(C)[C@H](C)CC/C(=N\O)[C@@H]1C` [Compound 2, 3-chloro-6-hydroxy-5-[(2E,4E)-5-[(1R,2R,3E,6R)-3-(hydroxyimino)-1,2,6-trimethylcyclohexyl]-3-methylpenta-2,4-dien-1-yl]-4-methoxy-2-methylbenzaldehyde] displayed a melting point of 158 to 160 °C.
`CC(/C=C/[C@@]1(C)[C@H](C)CC/C(=N\O)[C@@H]1C)=C\Cc1c(O)c(C=O)c(C)c(Cl)c1OCF` [Compound 5, 3-chloro-4-(fluoromethoxy)-6-hydroxy-5-[(2E,4E)-5-[(1R,2R,3E,6R)-3-(hydroxyimino)-1,2,6-trimethylcyclohexyl]-3-methylpenta-2,4-dien-1-yl]-2-methylbenzaldehyde]: the IC50 in series [1] is 3.2 µM; in series [3], 2.7 µM; in series [4] it was 5.5 µM; in series [5], 2.8 µM; in series [7], 2.6 µM; in series [8], 1.8 µM. Besides, the “effect to reduce the proliferation of the liver cancer cells (tumor size)” value in series [2] is listed as “significant effect”. The “Liver microsome stability remaining % after 60 min incubation with NADPH, human LM” value in series [6] was 86%. Further, the “Liver microsome stability remaining % after 60 min incubation with NADPH, mouse LM” value in series [9] turned out to be 88%.
For `CO/N=C/c1c(C)c(Cl)c(OC)c(C/C=C(C)/C=C/[C@@]2(C)[C@H](C)CC/C(=N\OCC(=O)O)[C@@H]2C)c1O` [Compound 19, 2-([[(1E,2R,3R,4R)-3-[(1E,3E)-5-[3-chloro-6-hydroxy-2-methoxy-5-[(1E)-(methoxyimino)methyl]-4-methylphenyl]-3-methylpenta-1,3-dien-1-yl]-2,3,4-trimethylcyclohexylidene]amino]oxy)acetic Acid], the IC50 is 17 µM in series [1]; 22.3 µM in series [3]; 20.4 µM in series [4]; 22.5 µM in [5]; 47.4 µM in series [7]; 14.6 µM in [8]. Besides, the “Liver microsome stability remaining % after 60 min incubation with NADPH, human LM” value in series [6] amounted to 94%. For the same molecule, the solubility at 2 h in series [10] (phosphate buffer (PBS), aqueous buffer, kinetic from dmso stock, pH 4.0 phosphate buffer solution, read-out: Solubility, pH 4.0 PBS) came to 148 µM (≈ 77.1 µg/mL); in [10] (phosphate buffer (PBS), aqueous buffer, kinetic from dmso stock, pH 7.4 phosphate buffer solution, read-out: Solubility, pH 7.4 PBS), 23.7 µM (≈ 12.3 µg/mL). Further, in series [9], the “Liver microsome stability remaining % after 60 min incubation with NADPH, mouse LM” value is on record as 89%. Besides, the “OGTT: blood glucose level after 2 hours of glucose administration, lower than control group” value in series [11] (setting [13]) turned out to be 30%. Also, in series [11] (setting [13]), the “OGTT: glucose AUC lower than control group” value was found to be 25%. Also, the “decrease of HbA1C level” value in series [11] (setting [14]) is reported as −31%. Further, the “decrease of blood glucose level” value in [11] (setting [14]) is reported as −68%.
Consider `COc1c(Cl)c(C)c(C=NCC(N)=O)c(O)c1C/C=C(C)/C=C/[C@@]1(C)[C@H](C)CCC(=O)[C@@H]1C` [compound #13 in WO2004/074236, reference compound], for which the “Solubility, pH 4.0 PBS” value in series [10] (pH 4.0 phosphate buffer solution) is recorded as “converted to MAC”. For the same molecule, the solubility at 2 h in series [10] (pH 7.4 phosphate buffer solution, read-out: Solubility, pH 7.4 PBS) was found to be 0.02 µM (≈ 0.0095 µg/mL). For the same molecule, in series [12], the “hydrolysis to MAC at pH 4.0 phosphate buffer solution” value was “almost instantly hydrolyzed to MAC”.
